Results reported in US20240158446A1, “CYCLIC COMPOUND HAVING SELECTIVE INHIBITORY ACTION ON KRAS OVER HRAS AND NRAS” (CHUGAI SEIYAKU KABUSHIKI KAISHA, priority 2021, published 2024).
pKd: −log10 of the molar value.

Assays:
[1] = molecular target: GDP-bound NRAS wild-type protein (Homo sapiens, UniProt P01111); assay: Binding to NRAS by surface plasmon resonance (SPR), Single Cycle Kinetics; conditions: ratio of KD for GDP-bound NRAS wild-type protein to KD for KRAS, SPR
[2] = test system: human lung cancer strain NCI-H441; assay: cells; conditions: NCI-H441, 96 h, read-out: NCI-H441 IC50 (nM), NCI-H441 cell proliferation, 4 days, CellTiter-Glo;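 further: cell proliferation inhibition after four days measured by CellTiter-Glo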
[3] = molecular target: GDP-bound HRAS wild-type protein (Homo sapiens, UniProt P01112); assay: Binding to HRAS by surface plasmon resonance (SPR), Single Cycle Kinetics; conditions: ratio of KD for GDP-bound HRAS wild-type protein to KD for KRAS, SPR
[4] = molecular target: GDP-bound KRAS wild-type protein (Homo sapiens, UniProt P01116); assay: Binding to KRAS by surface plasmon resonance (SPR), Single Cycle Kinetics; conditions: SPR, Single Cycle Kinetics, GDP-bound KRAS wild-type protein; read-out: KRAS KD
GDP-bound KRAS wild-type protein, sequence (P01116 whole entry): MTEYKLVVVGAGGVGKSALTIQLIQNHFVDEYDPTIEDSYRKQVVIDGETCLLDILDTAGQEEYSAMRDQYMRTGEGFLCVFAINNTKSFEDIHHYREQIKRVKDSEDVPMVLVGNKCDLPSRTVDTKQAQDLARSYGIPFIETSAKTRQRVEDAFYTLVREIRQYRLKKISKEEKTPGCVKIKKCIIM

GDP-bound NRAS wild-type protein, sequence (P01111 whole entry): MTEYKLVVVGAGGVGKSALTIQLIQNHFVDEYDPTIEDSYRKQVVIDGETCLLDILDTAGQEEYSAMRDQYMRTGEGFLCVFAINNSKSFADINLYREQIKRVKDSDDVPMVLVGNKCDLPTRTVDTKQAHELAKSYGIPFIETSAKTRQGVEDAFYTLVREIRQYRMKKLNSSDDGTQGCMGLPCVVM
GDP-bound HRAS wild-type protein, sequence (P01112 whole entry): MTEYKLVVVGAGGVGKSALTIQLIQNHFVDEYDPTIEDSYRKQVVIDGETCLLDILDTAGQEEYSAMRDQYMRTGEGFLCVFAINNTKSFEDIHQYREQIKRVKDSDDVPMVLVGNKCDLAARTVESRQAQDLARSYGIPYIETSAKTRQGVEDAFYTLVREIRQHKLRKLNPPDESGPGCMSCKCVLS

Structure (SMILES)	NRAS/KRAS (KD ratio) [1]	IC50 [2] [nM]	HRAS/KRAS (KD ratio) [3]	pKd [4]
CCCN(C)C(=O)[C@@H]1CC(=O)N(C)[C@@H](C(C)C)C(=O)N[C@@H]([C@@H](C)CC)C(=O)N(C)CC(=O)N(C)[C@H]2C/C=C\CCN(C2=O)[C@@H](Cc2ccc(C(F)(F)F)cc2)C(=O)N(C)CC(=O)N[C@@H](CCc2ccc(C(F)(F)F)c(OC)c2)C(=O)N2C[C@H](OCC)C[C@H]2C(=O)NC2(CCC2)C(=O)N(C)[C@@H](C2CCCC2)C(=O)N1C [PP2020]	A (a compound having 10 or more and less than 20 is denoted as A)	8.3	A (a compound having 10 or more and less than 20 is denoted as A)	9.72
CCO[C@@H]1C[C@H]2C(=O)NC3(CCC3)C(=O)N(C)[C@@H](C3CCCC3)C(=O)N(C)[C@H](C(=O)N(C)CC)CC(=O)N(C)[C@@H](C3CC3)C(=O)N[C@@H]([C@@H](C)CC)C(=O)N(C)CC(=O)N(C)[C@H]3C/C=C\CCN(C3=O)[C@@H](Cc3ccc(C(F)(F)F)cc3)C(=O)N(C)CC(=O)N[C@@H](CCc3ccc(C(F)(F)F)c(OC)c3)C(=O)N2C1 [PP2021]	A (a compound having 10 or more and less than 20 is denoted as A)	4.9	B (a compound having 3 or more and less than 10 is denoted as B)	9.92
CCOC[C@H]1C(=O)N[C@@H]([C@@H](C)CC)C(=O)N(C)CC(=O)N(C)[C@H]2C/C=C\CCN(C2=O)[C@@H](Cc2ccc(C(F)(F)F)cc2)C(=O)N(C)CC(=O)N[C@@H](CCc2ccc(C(F)(F)F)c(OC)c2)C(=O)N2C[C@@H](C)C[C@H]2C(=O)NC2(CCC2)C(=O)N(C)[C@@H](C2CCCC2)C(=O)N(C)[C@H](C(=O)N(C)CC)CC(=O)N1C [PP2026]	A (a compound having 10 or more and less than 20 is denoted as A)	22.6	A (a compound having 10 or more and less than 20 is denoted as A)	10.05
CCCN(C)C(=O)[C@@H]1CC(=O)N(C)[C@@H](CC(F)F)C(=O)N[C@@H]([C@@H](C)CC)C(=O)N(C)CC(=O)N(C)[C@H]2C/C=C\CCN(C2=O)[C@@H](Cc2ccc(C(F)(F)F)cc2)C(=O)N(C)CC(=O)N[C@@H](CCc2cc(F)c(C(F)(F)F)c(F)c2)C(=O)N2C[C@H](OCC)C[C@H]2C(=O)NC2(CC(C)(C)C2)C(=O)N(C)[C@@H](C2CCCC2)C(=O)N1C [PP2030]	A (a compound having 10 or more and less than 20 is denoted as A)	4.5	A (a compound having 10 or more and less than 20 is denoted as A)	9.92
CCCN(C)C(=O)[C@@H]1CC(=O)N(C)[C@@H](COCC)C(=O)N[C@@H]([C@@H](C)CC)C(=O)N(C)CC(=O)N(C)[C@H]2C/C=C\CCN(C2=O)[C@@H](Cc2ccc(C(F)(F)F)cc2)C(=O)N(C)CC(=O)N[C@@H](CCc2cc(F)c(C(F)(F)F)c(F)c2)C(=O)N2C[C@H](OCC)C[C@H]2C(=O)NC2(CC(C)(C)C2)C(=O)N(C)[C@@H](C2CCCC2)C(=O)N1C [PP2031]	B (a compound having 3 or more and less than 10 is denoted as B)	5.5	B (a compound having 3 or more and less than 10 is denoted as B)	9.85
CCOC[C@H]1C(=O)N[C@@H]([C@@H](C)CC)C(=O)N(C)CC(=O)N(C)[C@H]2C/C=C\CCN(C2=O)[C@@H](Cc2ccc(C(F)(F)F)cc2)C(=O)N(C)CC(=O)N[C@@H](CCc2cc(F)c(C(F)(F)F)c(F)c2)C(=O)N2C[C@H](OCC)C[C@H]2C(=O)NC2(CC(C)(C)C2)C(=O)N(C)[C@@H](C2CCCC2)C(=O)N(C)[C@H](C(=O)N(C)CC)CC(=O)N1C [PP2032]	A (a compound having 10 or more and less than 20 is denoted as A)	8.1	B (a compound having 3 or more and less than 10 is denoted as B)	10.21
